Experimental data from ChEMBL document CHEMBL1177773, “Design, synthesis and anticancer activity of piperazine hydroxamates and their histone deacetylase (HDAC) inhibitory activity” (Bioorg Med Chem Lett, 2010).

Experiments:
[1] = system: NCI-H460; test: Cytotoxicity against human NCI-H460 cells after 48 hrs by MTT assay; assay type: functional; details: for CC50: read-out: LC50 (the source's name)
[2] = system: HCT-116; test: Cytotoxicity against human HCT116 cells after 48 hrs by MTT assay; assay type: functional; details: for CC50: read-out: LC50 (the source's name)
[3] = system: U-251; test: Cytotoxicity against human U251 cells after 48 hrs by MTT assay; assay type: functional; details: for CC50: read-out: LC50 (the source's name)
[4] = system: HL-60; test: Growth inhibition of human HL60 cells after 48 hrs; assay type: functional, cell-based; details: HL-60, 48 h
[5] = biological target: T1, Histone deacetylase 8 (Homo sapiens, UniProt Q9BY41); test: Inhibition of human HDAC8
T1 sequence (Q9BY41 whole entry): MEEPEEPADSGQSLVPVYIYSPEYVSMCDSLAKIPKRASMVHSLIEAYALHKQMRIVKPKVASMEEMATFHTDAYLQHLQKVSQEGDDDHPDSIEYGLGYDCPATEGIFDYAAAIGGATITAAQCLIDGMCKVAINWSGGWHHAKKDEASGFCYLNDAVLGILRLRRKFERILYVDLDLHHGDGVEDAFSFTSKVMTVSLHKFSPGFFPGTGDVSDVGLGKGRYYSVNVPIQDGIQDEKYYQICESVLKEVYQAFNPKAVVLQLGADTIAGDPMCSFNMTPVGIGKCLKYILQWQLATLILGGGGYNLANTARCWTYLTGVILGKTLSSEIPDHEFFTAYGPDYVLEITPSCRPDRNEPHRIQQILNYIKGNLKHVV

SMILES | GI50 ([1]; Homo sapiens, NCI-H460, 48 h) [µM] | CC50 ([1]; Homo sapiens, NCI-H460, 48 h) [µM] | GI50 ([2]; Homo sapiens, HCT-116, 48 h) [µM] | CC50 ([2]; Homo sapiens, HCT-116, 48 h) [µM] | GI50 ([3]; Homo sapiens, U-251, 48 h) [µM] | CC50 ([3]; Homo sapiens, U-251, 48 h) [µM] | IC50 [4] [µM] | IC50 [5] [µM] | GI50 [1] [µM] | CC50 [1] [µM] | CC50 [2] [µM] | GI50 [3] [µM] | CC50 [3] [µM]
O=C1Nc2ccccc2/C1=N/NC(=S)N1CCN(C(=O)NO)CC1 | > 100 | > 100 | > 100 | > 100 | > 100 | > 100 |  |  |  |  |  |  | 
O=C(NO)N1CCN(C(=S)N/N=C/c2c3ccccc3cc3ccccc23)CC1 | 9.5 | > 100 | 70 | > 100 | 65 | > 100 |  |  |  |  |  |  | 
O=C(NO)N1CCN(C(=S)N/N=C/c2ccccc2O)CC1 | 5.15 | > 100 | 8.6 | > 100 | 14.2 | > 100 | 0.6 | 33.7 |  |  |  |  | 
O=C(NO)N1CCN(C(=S)N/N=C/c2ccc(Cl)cc2)CC1 | 16 | > 100 | 11.6 | > 100 | 8.5 | > 100 |  | 43.2 |  |  |  |  | 
Cc1ccc(/C=N/NC(=S)N2CCN(C(=O)NO)CC2)cc1 | 51 | > 100 | 31 | > 100 | 27.5 | > 100 |  |  |  |  |  |  | 
O=C(NO)N1CCN(C(=S)N/N=C/c2ccccc2Cl)CC1 | 30 | > 100 | 11.5 | > 100 | 13.5 | > 100 |  |  |  |  |  |  | 
O=C(CCCCCCC(=O)Nc1ccccc1)NO [VORINOSTAT] |  |  |  |  |  |  |  |  | 8 | > 100 | > 100 | 6.5 | > 100
